Measured values from patent US11479561B2, “Tetrahydroisoquinoline derivatives” (Cytokinetics, Incorporated, priority 2016, dated 2022).

Assays:
[1] = system: ankle plantarflexor muscle; assay: Rat isometric ankle plantarflexor muscle force; type: in vivo, Sprague Dawley rats; settings: estimated, concentration at which muscle force is 50% of the pre-dose maximum tension, 30 Hz stimulation, continuous intravenous infusion over 60 min
Description: Female Sprague Dawley rats were placed under a stable anesthesic plane with inhaled isoflurane (1-5%). One incision was made on the mid-thigh region of the right leg to expose the sciatic nerve. To prevent co-contraction of the ankle dorsiflexors, an additional incision was made lateral to the patella to isolate and sever the peroneal nerve. Rats were then placed on a temperature-maintained in situ muscle analysis rig (Aurora Scientific, Model 806C). The knee was immobilized in a clamp between two sharpened screws and the foot was taped to a footplate attached to a force transducer (Aurora Scientific, Ontario, Canada). Stainless steel needle electrodes (0.10 mm) were hooked around the exposed sciatic nerve. Isometric ankle plantarflexor muscle contractile force was assessed with the ankle joint at 90° flexion. A 30 Hz electrical stimulation (under supramaximal voltage conditions) was applied to the nerve and the resulting muscle force was recorded via a servomotor. A pre-dose 30 Hz force response was established as the baseline force. A pre-dose 150 Hz force response was established as the maximum isometric force. Compounds were formulated in 50% polyethylene glycol (PEG): 16% Cavitron: 10% dimethylacetamide (DMA) and administered by continuous intravenous infusion over a sixty minute period. The muscle force response to compound was measured every two minutes over the dosing period. Data was reported as an estimated EC50 value, which is the concentration at which muscle force is 50% of the pre-dose maximum tension.

[2] = system: rabbit skeletal myofibrils (approximately 90% fast fibers); assay: Activation of fast skeletal myofibrils (PUMA coupled-enzyme ATPase assay); type: biochemical; settings: concentration at which the compound increased the enzymatic activity by 40%; calcium level pCa25
Experimental: Preparation of fast skeletal myofibrils: Rabbit skeletal myofibrils were prepared based upon the method of Herrmann et al. (Biochem. 32(28):7255-7263(1993). Myofibrils were prepared from rabbit psoas muscle purchased from Pel-Freez Biologicals (Arkansas) within 2 days of ordering, stored on ice. Minced muscle was homogenized in 10 volumes of ice-cold “standard” buffer (50 mM Tris, pH 7.4, 0.1 M KOAc, 5 mM KCl, 2 mM dithiothreitol (DTT), 0.2 mM phenylmethylsulfonyl fluoride (PMSF), 10 μM leupeptin, 5 μM pepstatin, and 0.5 mM sodium azide) containing 5 mM ethylenediaminetetraacetic acid (EDTA) and 0.5% Triton X-100 using an Omni-Macro homogenizer. Myofibrils were recovered by low speed centrifugation (3000 rpm for 10 minutes) and washed 2 times in the Triton X-100 containing buffer to ensure removal of cellular membrane. Following the Triton washes, myofibrils were washed 3 times in “standard” buffer containing 2 mM magnesium acetate. A final wash in assay buffer (12 mM piperazine-1,4-bis(2-ethanesulfonic acid) (PIPES), pH 6.8, 60 mM KCl, 1 mM DTT) was performed and brought to 10% sucrose for flash freezing in liquid nitrogen and storage at −80° C.
Activation of Fast Skeletal Myofibrils: Fast fiber activators were identified by Measuring the enzymatic activity of muscle myofibril preparations using the proprietary PUMA (trademark) (see, e.g., U.S. Pat. Nos. 6,410,254, 6,743,599, 7,202,051, and 7,378,254) assay system. Myofibril preparations consisted of rabbit skeletal muscle (approximately 90% fast fibers) that had been mechanically homogenized and washed with a detergent (Triton X-100) to remove cellular membranes. This preparation retained all of the sarcomeric components in a native conformation and the enzymatic activity was still regulated by calcium. Compounds were tested using a myofibril suspension and a level of calcium sufficient to increase enzymatic activity of the myofibrils to 25% of their maximal rate (termed pCa25). Enzymatic activity was tracked via a pyruvate kinase and lactate dehydrogenase-coupled enzyme system. This assay regenerates myosin-produced ADP into ATP by oxidizing NADH, producing an absorbance change at 340 nm. The buffering system was 12 mM PIPES, 2 mM MgCl2, 1 mM DTT at pH 6.8 (PM12 buffer).

rat model of post-SCI = assay: Basso, Beattie, and Bresnahan (BBB) score of post-spinal cord injury (SCI); type: in vivo, SD rats; settings: post-SCI rats; day 6-7, 13-14, 20-21 after SCI; FIG. 8
Experimental: Preparation of the rat model of post-SCI: The rat model was prepared based on the method of Scheff et. al. (J Neurotrauma. 2003 February; 20(2):179-93.) which uses Infinite Horizon impactor (IH-0400; Precision Systems and Instrumentation). Female SD rats (10 week old) were anesthetized with a mixture of 0.3 mg/kg medetomidine, 4 mg/kg midazoram, and 5 mg/kg butorphanol (s.c.). The dorsal region of the rats was incised and the thoracic spine from T8 to T12 was exposed. Subsequently, laminectomy was performed on T9 and T10. On the stage of IH-0400, the exposed spinal column of the rats was stabilized by clamping with two forceps attached to the joints of IH-0400. Each of the joint and the forceps was tightly locked. Injury of T9 and T10 was induced with a rod impact of 210 kdyn. After dorsal closure, the rats were housed one per cage under the postoperative care which includes the injections of 5 mL saline s.c. and 50 mg/kg Cefamezin s.c twice a day for a week after the SCI, and includes the manual expression of the bladder of the rats twice a day using Crede maneuver until the function of the bladder recovers. […] The effect of Example Compound 52 or vehicle was analyzed using unpaired t test (a probability value of less than 0.05 was considered as a significant difference). Data were expressed as the mean±SEM.

| Structure (SMILES) | EC50 ([1]; Rattus norvegicus, iv, 1 h) [µM] | AC1.4 [2] [µM] | BBB score (rat model of post-SCI) | EC50 [1] [µM] |
| --- | --- | --- | --- | --- |
| CC1(C)NC(=O)C(C)(Cc2cc[nH]n2)c2nc(C#N)ccc21 (stereo not drawn) [compound 109] | 39.7 | 1.919 | – | – |
| CCC1(CC)C(=O)NC2(COC2)c2ccc(C(F)F)nc21 [compound 13] | 19.5 | – | – | – |
| CC1(C)C(=O)NC2(COC2)c2ccc(Cl)cc21 [compound 52, 6-chloro-4,4-dimethyl-2H-spiro[isoquinoline-1,3′-oxetan]-3(4H)-one] | 25.6 | 0.326 | increased BBB score | – |
| CCC1(CCO)C(=O)NC2(COC2)c2ccc(C#N)nc21 (stereo not drawn) [compound 101] | 24 | 2.228 | – | – |
| CCC1(CCO)C(=O)NC2(COC2)c2ccc(C(F)F)nc21 (stereo not drawn) [compound 103] | 23 | 1.247 | – | – |
| CCC1(CCO)C(=O)NC2(COC2)c2ccc(C(F)F)nc21 (stereo not drawn) [compound 104] | – | 5.017 | – | 30 |
| CC1(CCO)C(=O)NC2(COC2)c2ccc(OC(F)F)nc21 (stereo not drawn) [compound 19] | 35 | – | – | – |
| CC1(CCO)C(=O)NC2(COC2)c2ccc(C#N)cc21 (stereo not drawn) [compound 56] | 30 | 2.067 | – | – |
| CCC1(CC)C(=O)NC2(COC2)c2ccc(C#N)nc21 [compound 16] | 13 | – | – | – |
| CC1(C)C(=O)NC2(COC2)c2ccc(C#N)cc21 [compound 20] | 30 | – | – | – |
| CCC1(CC)C(=O)NC2(COC2)c2ncc(Cl)cc21 [compound 74] | 15.4 | 0.902 | – | – |
| CCC1(CC)C(=O)NC(C)(C)c2ccc(C#N)nc21 [compound 64] | 10 | 0.390 | – | – |
| CCC1(CC)C(=O)NC(C)(C)c2ncc(Cl)cc21 [compound 72] | 15.4 | 0.420 | – | – |
| CCC1(CC)C(=O)NC(C)(C)c2ccc(Br)cc21 [compound 49] | 8.2 | <0.077 | – | – |
| CCC1(CCO)C(=O)NC2(COC2)c2ccc(OC(F)F)nc21 (stereo not drawn) [compound 15] | 16.4 | – | – | – |
| CCC1(CC)C(=O)NC(C)(C)c2ncc(C#N)cc21 [compound 57] | 28 | 0.976 | – | – |
| CCC1(C)C(=O)NC(C)(C)c2ccc(C#N)nc21 (stereo not drawn) [compound 108] | 23 | 0.450 | – | – |
| CC1(C)NC(=O)C(C)(C)c2cc(C#N)ccc21 [compound 61] | 10.3 | 0.537 | – | – |
| CCC1(CC)C(=O)NC2(COC2)c2ccc(OCC(F)(F)F)nc21 [compound 11] | 17 | – | – | – |
| CCC1(CC)C(=O)NC2(COC2)c2ncc(C#N)nc21 [compound 106] | 15 | 0.494 | – | – |
| CC1(C)NC(=O)C(C)(C)c2cc(Cl)cnc21 [compound 73] | 50 | 1.571 | – | – |
| CC1(C)C(=O)NC2(COC2)c2ccc(OC(F)F)nc21 [compound 18] | 16 | – | – | – |
| CC1(CC(F)F)C(=O)NC2(COC2)c2ccc(OC(F)F)nc21 (stereo not drawn) [compound 113] | 8 | 0.271 | – | – |
| CCC1(CC)C(=O)NC2(COC2)c2ccc(C#N)cc21 [compound 55, 4,4-diethyl-3-oxo-3,4-dihydro-2H-spiro[isoquinoline-1,3′-oxetane]-6-carbonitrile] | 7.6 | 0.141 | – | – |
| CCC1(CC)C(=O)NC2(COC2)c2cccnc21 [compound 12] | 34 | – | – | – |
| CC1(CCO)C(=O)NC2(COC2)c2ccc(Cl)cc21 (stereo not drawn) [compound 35, 6-chloro-4-(2-hydroxyethyl)-4-methyl-2H-spiro[isoquinoline-1,3′-oxetan]-3(4H)-one] | – | 0.565 | – | 23 |
